Patent US20230382889A1 (Volastra Therapeutics, Inc., priority 2022, published 2023)
pIC50, pKi: −log10 of the molar value.

Columns and labels:
hKIF18A (1-374) = hKIF18A (1-374) (Homo sapiens (Human), UniProt Q8NI77); assay: Inhibition of KIF18A microtubule-dependent ATPase activity (ADP-Glo); type: biochemical; settings: 4 nM hKIF18A (1-374)
Summary of the method: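 Reaction was started with pre-formed microtubules and ATP (0.2 mg/mL and 2.0 mM in the added mix) and run 60 min at 28 °C. ADP was read by ADP-Glo luminescence, and IC50 came from a four-parameter fit of % inhibition.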

[1] = biological target: KIF18a-microtubule complex (Homo sapiens (Human), UniProt Q8NI77); assay: Binding kinetics to KIF18a-microtubule complex (global progress curve analysis); settings: for kon (on-rate from binding kinetics assay) / koff: KIF18A 0.25 nM, up to 24 hr; for koff: read-out: koff (off-rate from binding kinetics assay) (converted); for pKi: koff/kon, read-out: KI (determined from binding kinetic assay koff/kon)
Procedure: Compound binding kinetics parameters (kon and koff) were determined by the method of global progress curve analysis (GPCA). […] ADP product levels were determined by the Promega® ADP-Glo assay.

Chain of KIF18a-microtubule complex (Q8NI77 1-374, one chain of several): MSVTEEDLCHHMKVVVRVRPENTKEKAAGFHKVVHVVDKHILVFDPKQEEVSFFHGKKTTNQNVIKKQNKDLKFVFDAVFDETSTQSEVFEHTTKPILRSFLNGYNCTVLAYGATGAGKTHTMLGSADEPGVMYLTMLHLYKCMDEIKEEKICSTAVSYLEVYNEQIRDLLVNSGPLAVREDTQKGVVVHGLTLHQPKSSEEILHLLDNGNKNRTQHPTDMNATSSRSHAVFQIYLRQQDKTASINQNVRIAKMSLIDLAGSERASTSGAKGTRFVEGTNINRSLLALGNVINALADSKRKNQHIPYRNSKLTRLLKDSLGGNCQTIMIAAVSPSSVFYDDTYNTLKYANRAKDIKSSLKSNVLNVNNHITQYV
Chain of hKIF18A (1-374) (Q8NI77 1-374): as the sequence (Q8NI77 1-374, one chain of several) above

## Cc1cc(-c2cn(-c3ccc(NS(=O)(=O)CCO)cc3N3CCCCC3)nn2)nc(N2CC(F)(F)C2)c1 [Compound 70, N-(4-(4-(6-(3,3-difluoroazetidin-1-yl)-4-methylpyridin-2-yl)-1H-1,2,3-triazol-1-yl)-3-(piperidin-1-yl)phenyl)-2-hydroxyethane-1-sulfonamide]
hKIF18A (1-374)
  pIC50: 7.57
[1]
  kon (on-rate from binding kinetics assay): 2500 M⁻¹ s⁻¹
  koff: 3.61e-05 s⁻¹
  pKi: 7.82
  disc. t1/2 (dissociation half-life ln(2)/koff): 5.4 h

## CS(=O)(=O)Nc1ccc(-c2nnc(-c3cccc(N4CCC(F)(F)CC4)n3)[nH]2)c(N2CCC3(CC2)CC3)c1 [Compound 5, N-(4-(5-(6-(4,4-difluoropiperidin-1-yl)pyridin-2-yl)-1H-1,2,4-triazol-3-yl)-3-(6-azaspiro[2.5]octan-6-yl)phenyl)methanesulfonamide]
hKIF18A (1-374)
  pIC50: 8.18
[1]
  kon (on-rate from binding kinetics assay): 16900 M⁻¹ s⁻¹
  koff: 2.53e-05 s⁻¹
  pKi: 8.82
  disc. t1/2 (dissociation half-life ln(2)/koff): 7.6 h

## CCS(=O)(=O)Nc1ccc(-n2cc(-c3cccc(S(=O)(=O)NC(C)(C)C)c3)nn2)c(N2CCC(C(F)F)CC2)c1 [Compound 118, N-(tert-butyl)-3-(1-(2-(4-(difluoromethyl)piperidin-1-yl)-4-(ethylsulfonamido)phenyl)-1H-1,2,3-triazol-4-yl)benzenesulfonamide]
hKIF18A (1-374)
  pIC50: 7.82

## O=S(=O)(CCO)Nc1ccc(-c2cn(-c3cccc(OC4CCCC4)n3)nn2)c(N2CCC3(CC2)CC3)c1 [Compound 113, N-(4-(1-(6-(cyclopentyloxy)pyridin-2-yl)-1H-1,2,3-triazol-4-yl)-3-(6-azaspiro[2.5]octan-6-yl)phenyl)-2-hydroxyethane-1-sulfonamide]
hKIF18A (1-374)
  pIC50: 7.64

## CC1CCN(c2cc(NS(C)(=O)=O)ccc2-n2cc(-c3cccc(N4CCC(F)(F)CC4)n3)nn2)CC1 [Compound 18, N-(4-(4-(6-(4,4-difluoropiperidin-1-yl)pyridin-2-yl)-1H-1,2,3-triazol-1-yl)-3-(4-methylpiperidin-1-yl)phenyl)methanesulfonamide]
hKIF18A (1-374)
  pIC50: 8.06

## O=C(c1ccc(-c2cn(-c3ccc(NS(=O)(=O)CCO)cc3N3CCC4(CC3)CC4)nn2)o1)C1CCCC1 [Compound 92, N-(4-(4-(5-(cyclopentanecarbonyl)furan-2-yl)-1H-1,2,3-triazol-1-yl)-3-(6-azaspiro[2.5]octan-6-yl)phenyl)-2-hydroxyethane-1-sulfonamide]
hKIF18A (1-374)
  pIC50: 8.02

## CS(=O)(=O)Nc1ccc(-n2cc(-c3cccc4c3OC3(CCCCC3)O4)nn2)c(N2CCC3(CC2)CC3)c1 [Compound 128, N-(3-(6-azaspiro[2.5]octan-6-yl)-4-(4-(spiro[benzo[d][1,3]dioxole-2,1′-cyclohexan]-4-yl)-1H-1,2,3-triazol-1-yl)phenyl)methanesulfonamide]
hKIF18A (1-374)
  pIC50: 7.01

## CCS(=O)(=O)Nc1ccc(-n2cc(-c3ccc(S(=O)(=O)NC(C)(C)C)o3)nn2)c(N2CCC3(CC2)CC3)c1 [Compound 132, N-(tert-butyl)-5-(1-(4-(ethylsulfonamido)-2-(6-azaspiro[2.5]octan-6-yl)phenyl)-1H-1,2,3-triazol-4-yl)furan-2-sulfonamide]
hKIF18A (1-374)
  pIC50: 8.07

## Cc1cc(-c2cn(-c3ccc(NS(=O)(=O)CCO)cc3N3CCCCCC3)nn2)nc(N2CCC(F)(F)CC2)n1 [Compound 75, N-(3-(azepan-1-yl)-4-(4-(2-(4,4-difluoropiperidin-1-yl)-6-methylpyrimidin-4-yl)-1H-1,2,3-triazol-1-yl)phenyl)-2-hydroxyethane-1-sulfonamide]
hKIF18A (1-374)
  pIC50: 8.15

## O=S(=O)(CCO)Nc1ccc(-n2cc(-c3cc(CO)nc(N4CCC(F)(F)CC4)n3)nn2)c(N2CCC3(CC2)CC3)c1 [Compound 160, N-(4-(4-(2-(4,4-difluoropiperidin-1-yl)-6-(hydroxymethyl)pyrimidin-4-yl)-1H-1,2,3-triazol-1-yl)-3-(6-azaspiro[2.5]octan-6-yl)phenyl)-2-hydroxyethane-1-sulfonamide]
hKIF18A (1-374)
  pIC50: 8.36

## CS(=O)(=O)Nc1ccc(-n2cc(-c3nc(N4CCC(F)(F)CC4)ns3)nn2)c(N2CCC3(CC2)CC3)c1 [Compound 135, N-(4-(4-(3-(4,4-difluoropiperidin-1-yl)-1,2,4-thiadiazol-5-yl)-1H-1,2,3-triazol-1-yl)-3-(6-azaspiro[2.5]octan-6-yl)phenyl)methanesulfonamide]
hKIF18A (1-374)
  pIC50: 6.82

## CS(=O)(=O)Nc1cc(N2CCC3(CC2)CC3)c(-n2cc(-c3cccc(N4CCC(F)(F)CC4)n3)nn2)cn1 [Compound 59, N-(5-(4-(6-(4,4-difluoropiperidin-1-yl)pyridin-2-yl)-1H-1,2,3-triazol-1-yl)-4-(6-azaspiro[2.5]octan-6-yl)pyridin-2-yl)methanesulfonamide]
hKIF18A (1-374)
  pIC50: 8.80

## Cc1cc(-c2cn(-c3ccc(NS(=O)(=O)CCO)cc3N3CCC4(CC3)CC4)nn2)nc(N2CCC(F)C2)n1 (centres unmarked) [Compound 102, N-(4-(4-(2-(3-fluoropyrrolidin-1-yl)-6-methylpyrimidin-4-yl)-1H-1,2,3-triazol-1-yl)-3-(6-azaspiro[2.5]octan-6-yl)phenyl)-2-hydroxyethane-1-sulfonamide]
hKIF18A (1-374)
  pIC50: 7.80

## Cc1cc(-c2cn(-c3ccc(NS(=O)(=O)CCO)cc3N3CCC(F)(F)CC3)nn2)nc(N2CCC(F)(F)CC2)c1 [Compound 80, N-(3-(4,4-difluoropiperidin-1-yl)-4-(4-(6-(4,4-difluoropiperidin-1-yl)-4-methylpyridin-2-yl)-1H-1,2,3-triazol-1-yl)phenyl)-2-hydroxyethane-1-sulfonamide]
hKIF18A (1-374)
  pIC50: 7.89

## CS(=O)(=O)Nc1ccc(-c2ncc(-c3cccc(N4CC5C(C4)C5(F)F)n3)[nH]2)c(N2CCC3(CC2)CC3)c1 (centres unmarked) [Compound 30, N-(4-(5-(6-(6,6-difluoro-3-azabicyclo[3.1.0]hexan-3-yl)pyridin-2-yl)-1H-imidazol-2-yl)-3-(6-azaspiro[2.5]octan-6-yl)phenyl)methanesulfonamide]
hKIF18A (1-374)
  pIC50: 7.68

## CS(=O)(=O)Nc1ccc(-n2cc(-c3cccc(N4CC5(CCC5)C4)n3)nn2)c(N2CCC3(CC2)CC3)c1 [Compound 57, N-(4-(4-(6-(2-azaspiro[3.3]heptan-2-yl)pyridin-2-yl)-1H-1,2,3-triazol-1-yl)-3-(6-azaspiro[2.5]octan-6-yl)phenyl)methanesulfonamide]
hKIF18A (1-374)
  pIC50: 7.43

## O=S(=O)(CCO)Nc1ccc(-n2cc(-c3csc(N4CCC(F)(F)CC4)n3)nn2)c(N2CCCCC2)c1 [Compound 86, N-(4-(4-(2-(4,4-difluoropiperidin-1-yl)thiazol-4-yl)-1H-1,2,3-triazol-1-yl)-3-(piperidin-1-yl)phenyl)-2-hydroxyethane-1-sulfonamide]
hKIF18A (1-374)
  pIC50: 7.57

## CC(CO)S(=O)(=O)Nc1ccc(-n2cc(-c3cccc(N4CCC(F)(F)CC4)n3)nn2)c(N2CCC3(CC2)CC3)c1 (centres unmarked) [Compound 85, N-(4-(4-(6-(4,4-difluoropiperidin-1-yl)pyridin-2-yl)-1H-1,2,3-triazol-1-yl)-3-(6-azaspiro[2.5]octan-6-yl)phenyl)-1-hydroxypropane-2-sulfonamide]
hKIF18A (1-374)
  pIC50: 7.96

## O=S(=O)(CCO)Nc1ccc(-n2cc(-c3ccc(C(O)C4CCCC4)o3)nn2)c(N2CCC3(CC2)CC3)c1 (centres unmarked) [Compound 51, N-(4-(4-(5-(cyclopentyl(hydroxy)methyl)furan-2-yl)-1H-1,2,3-triazol-1-yl)-3-(6-azaspiro[2.5]octan-6-yl)phenyl)-2-hydroxyethane-1-sulfonamide]
hKIF18A (1-374)
  pIC50: 8.55

## N-(4-(4-(2-((3S,4R)-3,4-difluoropyrrolidin-1-yl)-6-methylpyrimidin-4-yl)-1H-1,2,3-triazol-1-yl)-3-(6-azaspiro[2.5]octan-6-yl)phenyl)-2-hydroxyethane-1-sulfonamide [Compound 107]
hKIF18A (1-374)
  pIC50: 7.80

## CCOC(=O)CS(=O)(=O)Nc1ccc(-c2nnc(-c3cccc(N4CCC(F)(F)CC4)n3)[nH]2)c(N2CCC3(CC2)CC3)c1 [Compound 7, ethyl 2-(N-(4-(5-(6-(4,4-difluoropiperidin-1-yl)pyridin-2-yl)-4H-1,2,4-triazol-3-yl)-3-(6-azaspiro[2.5]octan-6-yl)phenyl)sulfamoyl)acetate]
hKIF18A (1-374)
  pIC50: 7.08

## CS(=O)(=O)Nc1ccc(-n2cc(-c3cccc(N4CCC(F)(F)CC4)n3)nn2)c(N2CCC(C(F)F)CC2)c1 [Compound 19, N-(3-(4-(difluoromethyl)piperidin-1-yl)-4-(4-(6-(4,4-difluoropiperidin-1-yl)pyridin-2-yl)-1H-1,2,3-triazol-1-yl)phenyl)methanesulfonamide]
hKIF18A (1-374)
  pIC50: 7.85

## c1cc(-c2nnc(-c3cccnc3N3CCC4(CC3)CC4)[nH]2)nc(N2CCOCC2)c1 [Compound 4, 4-(6-(5-(2-(6-azaspiro[2.5]octan-6-yl)pyridin-3-yl)-4H-1,2,4-triazol-3-yl)pyridin-2-yl)morpholine]
hKIF18A (1-374)
  pIC50: 5.25

## Cc1cc(-c2cn(-c3ccc(NS(=O)(=O)CCCO)cc3N3CCC4(CC3)CC4)nn2)nc(N2CCC(F)(F)CC2)n1 [Compound 151, N-(4-(4-(2-(4,4-difluoropiperidin-1-yl)-6-methylpyrimidin-4-yl)-1H-1,2,3-triazol-1-yl)-3-(6-azaspiro[2.5]octan-6-yl)phenyl)-3-hydroxypropane-1-sulfonamide]
hKIF18A (1-374)
  pIC50: 7.57
